Measured values reported in US9394282B2, “Pyrazole carboxamides as Janus kinase inhibitors” (Merck Sharp & Dohme Corp., priority 2011, dated 2016).

Experiments:
JAK1 = JAK1 (Homo sapiens (Human), UniProt P23458); assay: Jak biochemical HTRF assay, JAK1; conditions: recombinant purified GST-tagged catalytic domain; HTRF format; [ATP] 31.8 μM
Excerpt: (§1) Jak Biochemical HTRF Assay Protocol
(§2) Subsequent reagent additions employed an Agilent Bravo.

JAK2 = JAK2 (Homo sapiens (Human), UniProt O60674); assay: Jak biochemical HTRF assay, JAK2; conditions: recombinant purified GST-tagged catalytic domain, HTRF format
Excerpt: as §1, §2

JAK1, sequence (P23458 875-1153): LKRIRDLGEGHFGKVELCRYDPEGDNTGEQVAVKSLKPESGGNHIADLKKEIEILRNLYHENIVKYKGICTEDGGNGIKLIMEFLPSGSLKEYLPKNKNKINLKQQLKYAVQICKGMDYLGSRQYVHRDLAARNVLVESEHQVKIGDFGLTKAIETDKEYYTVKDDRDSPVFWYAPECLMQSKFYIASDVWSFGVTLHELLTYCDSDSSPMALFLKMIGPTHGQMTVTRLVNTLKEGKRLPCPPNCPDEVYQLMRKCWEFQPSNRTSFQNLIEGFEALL
JAK2, sequence (O60674 849-1124): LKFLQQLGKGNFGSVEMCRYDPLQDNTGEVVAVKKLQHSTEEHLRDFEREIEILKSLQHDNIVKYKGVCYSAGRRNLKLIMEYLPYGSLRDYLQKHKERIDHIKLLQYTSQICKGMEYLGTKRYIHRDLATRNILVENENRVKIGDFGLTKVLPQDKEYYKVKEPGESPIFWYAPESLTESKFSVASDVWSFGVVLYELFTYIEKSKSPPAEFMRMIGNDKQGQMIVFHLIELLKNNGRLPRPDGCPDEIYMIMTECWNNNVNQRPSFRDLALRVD

| Compound | IC50 (JAK1) | IC50 (JAK2; [ATP] 8.5 μM) | IC50 (JAK2; [ATP] […]) |
| --- | --- | --- | --- |
| CC(C)(O)C1CC(CN2CC[C@@H](C#N)[C@H](n3cc(C(N)=O)c(Nc4ccc(F)cc4)n3)C2)C1 (mixture of isomers) [Example 6-11, 1-[(3S,4R and 3R,4S)-4-cyano-1-{[3-(1-hydroxy-1-methylethyl)cyclobutyl]methyl}piperidin-3-yl]-3-[(4-fluorophenyl)amino]-1H-pyrazole-4-carboxamide] | 25 nM | 533 nM |  |
| Cn1nccc1CN1CC[C@@H](C#N)[C@H](n2cc(C(N)=O)c(Nc3ccc(F)cc3)n2)C1 (racemic) [Example 6-13, 1-{(3S,4R and 3R,4S)-4-cyano-1-[(1-methyl-1H-pyrazol-5-yl)methyl]piperidin-3-yl}-3-[(4-fluorophenyl)amino]-1H-pyrazole-4-carboxamide] | 2 nM | 20 nM |  |
| Cc1cc(CN2CC[C@@H](C#N)[C@H](n3cc(C(N)=O)c(Nc4ccc(F)cc4)n3)C2)no1 (racemic) [Example 6-14, 1-{(3S,4R and 3R,4S)-4-cyano-1-[(5-methylisoxazol-3-yl)methyl]piperidin-3-yl}-3-[(4-fluorophenyl)amino]-1H-pyrazole-4-carboxamide] | 4 nM | 42 nM |  |
| Cc1c(CN2CC[C@@H](C#N)[C@H](n3cc(C(N)=O)c(Nc4ccc(F)cc4)n3)C2)cnn1C (racemic) [Example 6-15, 1-{(3S,4R and 3R,4S)-4-cyano-1-[(1,5-dimethyl-1H-pyrazol-4-yl)methyl]piperidin-3-yl}-3-[(4-fluorophenyl)amino]-1H-pyrazole-4-carboxamide] | 1 nM | 20 nM |  |
| N#C[C@@H]1CCN(Cc2ccc(F)cn2)C[C@H]1n1cc(C(N)=O)c(Nc2ccc(F)cc2)n1 (racemic) [Example 6-16, 1-{(3S,4R and 3R,4S)-4-cyano-1-[(5-fluoropyridin-2-yl)methyl]piperidin-3-yl}-3-[(4-fluorophenyl)amino]-1H-pyrazole-4-carboxamide] | 0.7 nM | 14 nM |  |
| CC1=NOC(CN2CC[C@@H](C#N)[C@H](n3cc(C(N)=O)c(Nc4ccc(F)cc4)n3)C2)C1 (mixture of isomers) [Example 6-20, 1-{(3S,4R and 3R,4S)-4-cyano-1-[(3-methyl-4,5-dihydroisoxazol-5-yI)methyl]piperidin-3-yl}-3-[(4-fluorophenyl)amino]-1H-pyrazole-4-carboxamide] | 6 nM | 98 nM |  |
| N#C[C@@H]1CCN(CC2CCOC2)C[C@H]1n1cc(C(N)=O)c(Nc2ccc(F)cc2)n1 (mixture of isomers) [Example 6-21, 1-[(3S,4R and 3R,4S)-4-cyano-1-(tetrahydrofuran-3-ylmethyl)piperidin-3-yl]-3-[(4-fluorophenyl)amino]-1H-pyrdzole-4-carboxamide] | 6 nM | 63 nM |  |
| N#C[C@@H]1CN(Cc2cccnn2)CC[C@H]1n1cc(C(N)=O)c(Nc2ccc(F)cc2)n1 (racemic) [Example 6-22, 1-[(3R,4R and 3S,4S)-3-cyano-1-(pyridazin-3-ylmethyl)piperidin-4-yl]-3-[(4-fluorophenyl)amino]-1H-pyrazole-4-carboxamide] | 19 nM | 220 nM |  |
| N#C[C@@H]1CN(Cc2ccon2)CC[C@H]1n1cc(C(N)=O)c(Nc2ccc(F)cc2)n1 (racemic) [Example 6-24, 1-[(3R,4R and 3S,4S)-3-cyano-1-(isoxazol-3-ylmethyl)piperidin-4-yl]-3-[(4-fluorophenyl)amino]-1H-pyrazole-4-carboxamide] | 3 nM | 34 nM |  |
| Cc1cc(CN2CC[C@@H](n3cc(C(N)=O)c(Nc4ccc(F)cc4)n3)[C@H](C#N)C2)no1 (racemic) [Example 6-33, 1-{(3R,4R and 3S,4S)-3-cyano-1-[(5-methylisoxazol-3-yl)methyl]piperidin-4-yl}-3-[(4-fluorophenyl)amino]-1H-pyrazole-4-carboxamide] | 7 nM | 92 nM |  |
| Cc1c(CN2CC[C@@H](n3cc(C(N)=O)c(Nc4ccc(F)cc4)n3)[C@H](C#N)C2)cnn1C (racemic) [Example 6-34, 1-{(3R,4R and 3S,4S)-3-cyano-1-[(1,5-dimethyl-1H-pyrazol-4-yl)methyl]piperidin-4-yl}-3-[(4-fluorophenyl)amino]-1H-pyrazole-4-carboxamide] | 10 nM | 111 nM |  |
| N#C[C@@H]1CN(Cc2cccnc2F)CC[C@H]1n1cc(C(N)=O)c(Nc2ccc(F)cc2)n1 (racemic) [Example 6-35, 1-{(3R,4R and 3S,4S)-3-cyano-1-[(2-fluoropyridin-3-yl)methyl]piperidin-4-yl}-3-[(4-fluorophenyl)amino]-1H-pyrazole-4-carboxamide] | 5 nM | 79 nM |  |
| Cc1ncc(CN2CC[C@@H](n3cc(C(N)=O)c(Nc4ccc(F)cc4)n3)[C@H](C#N)C2)s1 (racemic) [Example 6-37, 1-{(3R,4R and 3S,4S)-3-cyano-1-[(2-methyl-1,3-thiazol-5-yl)methyl]piperidin-4-yl}-3-[(4-fluorophenyl)amino]-1H-pyrazole-4-carboxamide] | 5 nM | 104 nM |  |
| CCn1ccnc1CN1CC[C@@H](n2cc(C(N)=O)c(Nc3ccc(F)cc3)n2)[C@H](C#N)C1 (racemic) [Example 6-38, 1-{(3R,4R and 3S,4S)-3-cyano-1-[(1-ethyl-1H-imidazol-2-yl)methyl]piperidin-4-yl}-3-[(4-fluorophenyl)amino]-1H-pyrdzole-4-carboxamide] | 7 nM | 82 nM |  |
| N#C[C@H]1CCOC[C@@H]1n1cc(C(N)=O)c(Nc2ccc(OC(F)(F)F)cc2)n1 (single isomer, unassigned) [Example 9-20, 1-[(3R,4S or 3S,4R)-4-cyanotetrahydro-2H-pyran-3-yl]-3-{[4-(trifluoromethoxy)phenyl]amino}-1H-pyrazole-4-carboxamide] | 7 nM | 52 nM |  |
| CC1(c2ccc(Nc3nn([C@H]4COCC[C@@H]4C#N)cc3C(N)=O)cc2)COC1 (single isomer, unassigned) [Example 9-24, 1-[(3R,4S or 3S,4R)-4-cyanotetrahydro-2H-pyran-3-yl]-3-{[4-(3-methyloxetan-3-yl)phenyl]amino}-1H-pyrazole-4-carboxamide] | 0.1 nM | 0.6 nM |  |
| CC1(c2ccc(Nc3nn([C@@H]4COCC[C@H]4C#N)cc3C(N)=O)cc2)COC1 (single isomer, unassigned) [Example 9-26, 1-[(3S,4R or 3R,4S)-4-cyanotetrahydro-2H-pyran-3-yl]-3-{[4-(3-methyloxetan-3-yl)phenyl]amino}1H-pyrazole-4-carboxamide] | 6 nM | 21 nM |  |
| N#C[C@H]1CCOC[C@@H]1n1cc(C(N)=O)c(Nc2ccc(F)nc2)n1 (single isomer, unassigned) [Example 9-29, 1-[(3R,4S or 3S,4R)-4-cyanotetrahydro-2H-pyran-3-yl]-3-[(6-fluoropyridin-3-yl)amino]-1H-pyrazole-4-carboxamide] | 0.8 nM | 5 nM |  |
| N#C[C@H]1CCOC[C@@H]1n1cc(C(N)=O)c(Nc2cncc(F)c2)n1 (single isomer, unassigned) [Example 9-30, 1-[(3R,4S or 3S,4R)-4-cyanotetrahydro-2H-pyran-3-yl]-3-[(5-fluoropyridin-3-yl)amino]-1H-pyrazole-4-carboxamide] | 83 nM | 306 nM |  |
| N#C[C@@H]1CCOC[C@H]1n1cc(C(N)=O)c(Nc2cncc(F)c2)n1 (single isomer, unassigned) [Example 9-31, 1-[(3S,4R or 3R,4S)-4-cyanotetrahydro-2H-pyran-3-yl]-3-[(5-fluoropyridin-3-yl)amino]-1H-pyrazole-4-carboxamide] | 0.9 nM | 7 nM |  |
| N#Cc1ccc(Nc2nn([C@H]3COCC[C@@H]3C#N)cc2C(N)=O)cc1 (single isomer, unassigned) [Example 9-35, 3-[(4-cyanophenyl)amino]-1-[(3R, 4S or 3S,4R)-4-cyanotetrahydro-2H-pyran-3-yl]-1H-pyrazole-4-carboxamide] | 0.07 nM |  | 0.7 nM |
| N#C[C@H]1CCOC[C@@H]1n1cc(C(N)=O)c(Nc2ccc(OCC(F)(F)F)nc2)n1 (single isomer, unassigned) [Example 9-36, 1-[(3R,4S or 3S,4R)-4-cyanotetrahydro-2H-pyran-3-yl]-3-{[6-(2,2,2-trifluoroethoxy)pyridin-3-yl]amino}-1H-pyrazole-4-carboxamide] | 0.6 nM | 3 nM |  |
| C[C@@]1(C#N)CS(=O)(=O)C[C@@H]1n1cc(C(N)=O)c(Nc2ccc(F)cc2)n1 (single isomer, unassigned) [Example 14-1, 1-((3R,4R or 3S,4S)-4-Cyano-4-methyl-1,1-dioxidotetrahydrothiophen-3-yl)-3-((4-fluorophenyl)amino)-1H-pyrazole-4-carboxamide] | 2 nM |  | 18 nM |
| C[C@@]1(C#N)CS(=O)(=O)C[C@@H]1n1cc(C(N)=O)c(Nc2ccc(F)cc2)n1 (single isomer, unassigned) [Example 14-2, 1-((3R,4R or 3S,4S)-4-Cyano-4-methyl-1,1-dioxidotetrahydrothiophen-3-yl)-3-((4-fluorophenyl)amino)-1H-pyrazole-4-carboxamide] | 84 nM |  | 292 nM |
| N#C[C@@H]1CN(CC2CCC2)CC[C@H]1n1cc(C(N)=O)c(Nc2ccc(F)cc2)n1 [Example 6-40, 1-[(3R,4R)-3-cyano-1-(cyclobutylmethyl)piperidin-4-yl]-3-[(4-fluorophenyl)amino]-1H-pyrazole-4-carboxamide] | 5 nM |  | 66 nM |
| Cc1ncoc1CN1CC[C@@H](C#N)[C@H](n2cc(C(N)=O)c(Nc3ccc(F)cc3)n2)C1 [Example 7-2, 1-{(3S,4R, 3R,4S)-4-cyano-1-[(4-methyl-1,3-oxazol-5-yl)methyl]piperidin-3-yl}-3-[(4-fluorophenyl)amino]-1H-pyrazole-4-carboxamide] | 0.6 nM |  | 8 nM |
